Key:
[1] = test system: markers of inflammation in blood; assay: Markers of inflammation in blood (serum/plasma); format: in vivo, human; conditions: Day 32, geometric mean (%CV)
Description: Induced sputum was collected pre-dose on Day 1 of each treatment period (for the first treatment period, the sample could be collected up to 10 days prior to Day 1), and 2 h post-dose on Days 20, 26 and 32 (see the Additional file 1 for further detail on sputum and blood analysis methods). Blood samples were taken pre-dose on Day 1, and pre-dose and at 30 min, and 1, 1.5, 2, 3, 4, 6, 8 and 12 h post-dose on Day 32. Other pre-dose assessments on Days 1 and 32 were spirometry (forced expiratory volume in 1 s [FEV1] and forced vital capacity [FVC]), forced oscillometry, and COPD Assessment Test (CAT), with Baseline Dyspnea Index recorded on Day 1 and Transition Dyspnea Index (TDI) on Day 32. Central and peripheral airways mechanics were assessed using forced oscillometry, with the following values determined: inspiratory and expiratory resistance (at 5 and 19 Hz), inspiratory and expiratory reactance, tidal expiratory flow limitation and the percentage of flow limited breaths.
A patient had to have a minimum of one acceptable sputum sample on Day 20, 26 or 32 to be included in the sputum biomarker evaluation for that treatment period, with the available cell count and biomarker data averaged for each patient. The mean change from baseline (pre-dose on Day 1 of each treatment period) was then compared between treatments using an analysis of covariance (ANCOVA) that included treatment, patient and period as fixed effects, and baseline values as covariate. The mean change from baseline to Day 32 for biomarkers in blood were analysed using the same model as for sputum data. All data were log-transformed before analysis, and the results are presented as ratio of geometric means.
Effect of CHF6001 on inflammatory biomarkers – Additional file 1 […]
Analysis of biomarkers and CHF6001 concentration in blood
The levels of inflammatory biomarkers were evaluated from blood collected at 2 h post-dose […]
• Ex-vivo lipopolysaccharide (LPS) stimulated TNFα: 1.5 mL of blood collected into sodium heparin tubes was stimulated with 30 µL of LPS 5 µg/mL, incubated at 37C for 23 h, centrifuged at 2000 g for 10 min at 4C and plasma transferred to the central laboratory at –60 to –90C for analysis.
• Fibrinogen and MMP-3 and -9: Blood was collected into lithium heparin tubes, centrifuged at 2500 g for 15 min at 4C, and plasma transferred to the central […]
• IL-6, -16, and -18, CXCL8, TNFα, MCP-1, MIP 1β, club cell secretory protein 16 (CC16), C-reactive protein (CRP) and surfactant protein D (SP-D): Blood was collected into serum separator tubes and kept at room temperature for 30 –60 minutes to allow clotting. Samples were then centrifuged at 2000 g for 5 min at +4C and serum transferred to the central laboratory at –60 to –90C for analysis.
Levels of biomarkers were assessed as follows:
• Fibrinogen: K-Assay Fibrinogen kit, automated on the Beckman AU640 .
• IL-18, and MMP-3 and -9: PheraSTAR ELISA.
• IL-6, CXCL8, TNFα, MCP-1 and MIP-1β: Meso Scale Diagnostics v -PLEX Plus kit .
• CC16: Biovendor Elisa Kit, Oxford Biosystems.
• CRP: Randox Reagents, automated on the Beckman AU640 .
• IL-16: Meso Scale Diagnostics Sector Imager 6000.
• Serum SP-D: Sandwich Immunoassay, using PheraSTAR Plate Reader .
Validation procedures again followed those outlined for the analysis of biomarkers above. All […]
concentrations of biomarkers in human serum or plasma from regulatory studies.
Blood for the pharmacokinetic analysis was collected pre-dose and at 30 min, and 1, 1.5, 2, 3, 4, 6, 8 and 12 h post-dose on Day 32 of each treatment period. Samples were centrifuged at 2000 g for 15 min at 4C, with the resulting plasma shipped to the central laboratory at –60

[2] = Stability of CHF6001 in human plasma (bioanalytical validation); format: in vitro ADME
Description: Effect of CHF6001 on inflammatory biomarkers – Additional file 1 to –90C. The plasma concentration of CHF6001 was evaluated using a LC-MS/MS method following solid phase extraction. Validation procedures again followed those outlined for the analysis of biomarkers above. The bioanalytical method wa s found to be linear over the calibration range of 10 to 20,000 pg/mL. The precision and accuracy of the method was found to be within the target limits of within 20% at the lower limit of quantification 10 pg/mL and within 15% at all other concentrations.
The recovery of CHF6001 from human plasma was consistent across the analytical range , with no significant matrix effects. […]
for up to 24 h at the sample processing temperature (nominally +20C), a fter storage for 184 days in a freezer (nominally –80C) and after four freeze-thaw cycles at nominally – 80C / +20C. Therefore the method was considered to be suitable for measuring concentrations of CHF6001 in human plasma samples from regulatory studies.
The study was approved by two centralised ethics committees on behalf of the sites:
• UK: Health Research Authority, North West, Greater Manchester South Research Ethics Committee, Manchester (approval reference 16/NW/0553).
• Germany: Ethics Committee of Hesse Medical Association, Frankfurt am Main (approval reference FF 98/2016).
Patients had to meet all the following inclusion criteria to be eligible for enrolment into the […]
1. Written informed consent obtained prior to any study-related procedures;
2. Male or female aged ≥40 years;
3. A female was eligible to enter the study if they were of non-childbearing potential, i.e. physiologically incapable of becoming pregnant (e.g. postmenopausal women defined as being amenorrhoeic for ≥12 consecutive months without an alternative medical cause. If indicated, as per Investigator’s request, post -menopausal status

In the case of CS(=O)(=O)Nc1ccc(C(=O)O[C@@H](Cc2c(Cl)c[n+]([O-])cc2Cl)c2ccc(OC(F)F)c(OCC3CC3)c2)cc1OCC1CC1 [CHF6001], the “C-X-C motif chemokine ligand 8 in blood, post-baseline” value ([1]; 800 µg BID) is reported as 13.565 (36.9), the “C-reactive protein in blood, post-baseline” value ([1]; 800 µg BID) is reported as 3.4462 (167.3) mg/L and the “Club cell secretory protein 16 in blood, post-baseline” value ([1]; 800 µg BID) is reported as 4.6249 (67.5) ng/mL. For the same compound, the “Fibrinogen in blood, post-baseline” value ([1]; 800 µg BID) was 327.0 (47.5) mg/dL, the “Interleukin 6 in blood, post-baseline” value ([1]; 800 µg BID) was 1.8740 (63.9) pg/mL and the “Interleukin 16 in blood, post-baseline” value ([1]; 800 µg BID) was 183.95 (33.6) pg/mL. The “Interleukin 18 in blood, post-baseline” value ([1]; 800 µg BID) was 236.46 (43.0) pg/mL, the “Macrophage inflammatory protein 1β in blood, post-baseline” value ([1]; 800 µg BID) was 107.36 (35.2) pg/mL and the “Matrix metalloproteinase 3 in blood, post-baseline” value ([1]; 800 µg BID) was 19.356 (66.9) ng/mL. For the same compound, the “Matrix metalloproteinase 9 in blood, post-baseline” value ([1]; 800 µg BID) was 61.69 (88.4) ng/mL, the “Monocyte chemotactic protein 1 in blood, post-baseline” value ([1]; 800 µg BID) was 308.2 (33.3) pg/mL and the “Serum surfactant protein D, post-baseline” value ([1]; 800 µg BID) was 168.55 (67.6) ng/mL. The “Tumour necrosis factor α in serum, post-baseline” value ([1]; 800 µg BID) was 1.9453 (31.8) pg/mL, the “C-X-C motif chemokine ligand 8 in blood, post-baseline” value ([1]; 1600 µg BID) was 13.014 (42.2) and the “C-reactive protein in blood, post-baseline” value ([1]; 1600 µg BID) was 3.7389 (135.5) mg/L. For the same compound, the “Club cell secretory protein 16 in blood, post-baseline” value ([1]; 1600 µg BID) was 4.5701 (75.3) ng/mL, the “Fibrinogen in blood, post-baseline” value ([1]; 1600 µg BID) was 367.8 (54.2) mg/dL and the “Interleukin 6 in blood, post-baseline” value ([1]; 1600 µg BID) was 1.9386 (88.8) pg/mL. For the same compound, the “Interleukin 16 in blood, post-baseline” value ([1]; 1600 µg BID) was 178.08 (30.4) pg/mL, the “Interleukin 18 in blood, post-baseline” value ([1]; 1600 µg BID) was 252.43 (40.2) pg/mL and the “Macrophage inflammatory protein 1β in blood, post-baseline” value ([1]; 1600 µg BID) was 113.88 (44.2) pg/mL. The “Matrix metalloproteinase 3 in blood, post-baseline” value ([1]; 1600 µg BID) was 19.565 (53.9) ng/mL, the “Matrix metalloproteinase 9 in blood, post-baseline” value ([1]; 1600 µg BID) was 52.19 (89.7) ng/mL and the “Monocyte chemotactic protein 1 in blood, post-baseline” value ([1]; 1600 µg BID) was 323.6 (31.8) pg/mL. For the same compound, the “Serum surfactant protein D, post-baseline” value ([1]; 1600 µg BID) was 167.66 (66.1) ng/mL, the “Tumour necrosis factor α in serum, post-baseline” value ([1]; 1600 µg BID) was 1.9302 (35.7) pg/mL and the “Storage time found stable in human plasma” value ([2]; freezer (nominally –80C)) was 184 days. For the same compound, the “Freeze-thaw cycles found stable in human plasma” value ([2]; nominally –80C / +20C) was “four” and the “Time found stable in human plasma” value ([2]; sample processing temperature (nominally +20C)) was “up to 24 h”.
